Reference: PubChem BioAssay AID2060496 (Molecular Pharmacology Branch, DTP, NCI, 2025)

Test system: 276233-004-R-J1-PDC complex spheroid viability
Assay: Anticancer human tumor 276233-004-R-J1-PDC patient-derived colon adenocarcinoma cell line growth inhibition [GQUAD]
Conditions: for IC50: curve of first compound; for viability, T/C: stronger effect = lower value
How it was run: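 Viability of tumor cells grown as complex spheroids with endothelial and stromal cells, exposed to drug combinations. Top concentration at or near clinical Cmax (else 10 microM), diluted in half-log increments.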

[1] = second compound 0.0316 µM, first compound 0.0316 µM
[2] = second compound 0.0316 µM, first compound 0.1 µM
[3] = second compound 0.0316 µM, first compound 0.316 µM
[4] = second compound 0.0316 µM, first compound 1 µM
[5] = second compound 0.0316 µM, first compound 3.16 µM
[6] = second compound 0.0316 µM, first compound 10 µM
[7] = second compound 0.1 µM, first compound 0.0316 µM
[8] = second compound 0.1 µM, first compound 0.1 µM
[9] = second compound 0.1 µM, first compound 0.316 µM
[10] = second compound 0.1 µM, first compound 1 µM
[11] = second compound 0.1 µM, first compound 3.16 µM
[12] = second compound 0.1 µM, first compound 10 µM
[13] = second compound 0.316 µM, first compound 0.0316 µM
[14] = second compound 0.316 µM, first compound 0.1 µM
[15] = second compound 0.316 µM, first compound 0.316 µM
[16] = second compound 0.316 µM, first compound 1 µM
[17] = second compound 0.316 µM, first compound 3.16 µM
[18] = second compound 0.316 µM, first compound 10 µM
[19] = second compound 1 µM, first compound 0.0316 µM
[20] = second compound 1 µM, first compound 0.1 µM
[21] = second compound 1 µM, first compound 0.316 µM
[22] = second compound 1 µM, first compound 1 µM
[23] = second compound 1 µM, first compound 3.16 µM
[24] = second compound 1 µM, first compound 10 µM
[25] = second compound 3.16 µM, first compound 0.0316 µM
[26] = second compound 3.16 µM, first compound 0.1 µM
[27] = second compound 3.16 µM, first compound 0.316 µM
[28] = second compound 3.16 µM, first compound 1 µM
[29] = second compound 3.16 µM, first compound 3.16 µM
[30] = second compound 3.16 µM, first compound 10 µM
[31] = second compound 10 µM, first compound 0.0316 µM
[32] = second compound 10 µM, first compound 0.1 µM
[33] = second compound 10 µM, first compound 0.316 µM
[34] = second compound 10 µM, first compound 1 µM
[35] = second compound 10 µM, first compound 3.16 µM
[36] = second compound 10 µM, first compound 10 µM
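Note: spheroids exposed to drugs for seven days.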
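Throughout, for viability, T/C: 100% = DMSO vehicle control viability.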

## C#Cc1c(F)ccc2cc(O)cc(-c3ncc4c(N5CC6CCC(C5)N6)nc(OCC56CCCN5CC(F)C6)nc4c3F)c12 (stereo not given) + Cc1[nH]c2ccc(F)cc2c1-c1nc2c3cccnc3c3ncccc3c2[nH]1
Second compound 0.0316 µM
  IC50: > 10 µM
Second compound 0.1 µM
  IC50: 2.5 µM
Second compound 0.316 µM
  IC50: 1.13 µM
Second compound 1 µM
  IC50: 0.208 µM
Second compound 3.16 µM
  IC50: < 0.0316 µM
Second compound 10 µM
  IC50: < 0.0316 µM
[1]
  viability, T/C: 89%
[2]
  viability, T/C: 85.2%
[3]
  viability, T/C: 89.2%
[4]
  viability, T/C: 71.7%
[5]
  viability, T/C: 57.2%
[6]
  viability, T/C: 51.2%
[7]
  viability, T/C: 80.2%
[8]
  viability, T/C: 80.3%
[9]
  viability, T/C: 82.5%
[10]
  viability, T/C: 73.8%
[11]
  viability, T/C: 44%
[12]
  viability, T/C: 34.1%
[13]
  viability, T/C: 68.4%
[14]
  viability, T/C: 67.4%
[15]
  viability, T/C: 57%
[16]
  viability, T/C: 56%
[17]
  viability, T/C: 33.8%
[18]
  viability, T/C: 27.4%
[19]
  viability, T/C: 70.3%
[20]
  viability, T/C: 48.7%
[21]
  viability, T/C: 48.7%
[22]
  viability, T/C: 39.7%
[23]
  viability, T/C: 40%
[24]
  viability, T/C: 26.2%
[25]
  viability, T/C: 19.1%
[26]
  viability, T/C: 14.9%
[27]
  viability, T/C: 12.7%
[28]
  viability, T/C: 13.6%
[29]
  viability, T/C: 9.51%
[30]
  viability, T/C: 17.4%
[31]
  viability, T/C: 35.7%
[32]
  viability, T/C: 41.8%
[33]
  viability, T/C: 35.7%
[34]
  viability, T/C: 34.2%
[35]
  viability, T/C: 28.1%
[36]
  viability, T/C: 15.6%

## C#Cc1c(F)ccc2cc(O)cc(-c3ncc4c(N5CC6CCC(C5)N6)nc(OCC56CCCN5CC(F)C6)nc4c3F)c12 (stereo not given) + Cc1cnc(CNC(=O)c2c(=O)c3ccc(N4CCCN(C)CC4)nc3n3c2sc2ccccc23)cn1
Second compound 0.0316 µM
  IC50: > 10 µM
Second compound 0.1 µM
  IC50: > 10 µM
Second compound 0.316 µM
  IC50: > 10 µM
Second compound 1 µM
  IC50: 7.14 µM
Second compound 3.16 µM
  IC50: 1.55 µM
Second compound 10 µM
  IC50: 1.43 µM
[1]
  viability, T/C: 115%
[2]
  viability, T/C: 86.6%
[3]
  viability, T/C: 101%
[4]
  viability, T/C: 77.5%
[5]
  viability, T/C: 83%
[6]
  viability, T/C: 57.8%
[7]
  viability, T/C: 95.2%
[8]
  viability, T/C: 77.7%
[9]
  viability, T/C: 75.3%
[10]
  viability, T/C: 75%
[11]
  viability, T/C: 70.7%
[12]
  viability, T/C: 60.5%
[13]
  viability, T/C: 84.1%
[14]
  viability, T/C: 73%
[15]
  viability, T/C: 85.7%
[16]
  viability, T/C: 80.8%
[17]
  viability, T/C: 69.5%
[18]
  viability, T/C: 59.6%
[19]
  viability, T/C: 84.2%
[20]
  viability, T/C: 71.4%
[21]
  viability, T/C: 75.5%
[22]
  viability, T/C: 73%
[23]
  viability, T/C: 62.8%
[24]
  viability, T/C: 44.4%
[25]
  viability, T/C: 65.2%
[26]
  viability, T/C: 76.2%
[27]
  viability, T/C: 66.9%
[28]
  viability, T/C: 53.8%
[29]
  viability, T/C: 44.5%
[30]
  viability, T/C: 41%
[31]
  viability, T/C: 64.1%
[32]
  viability, T/C: 73.5%
[33]
  viability, T/C: 67.7%
[34]
  viability, T/C: 45.8%
[35]
  viability, T/C: 43.2%
[36]
  viability, T/C: 5.43%

## C=CC(=O)N1CCN(c2nc(=O)n(-c3c(C)ccnc3C(C)C)c3nc(-c4c(O)cccc4F)c(F)cc23)C(C)C1 (stereo not given) + Cc1cnc(CNC(=O)c2c(=O)c3ccc(N4CCCN(C)CC4)nc3n3c2sc2ccccc23)cn1
Second compound 0.0316 µM
  IC50: > 10 µM
Second compound 0.1 µM
  IC50: > 10 µM
Second compound 0.316 µM
  IC50: > 10 µM
Second compound 1 µM
  IC50: > 10 µM
Second compound 3.16 µM
  IC50: > 10 µM
Second compound 10 µM
  IC50: > 10 µM
[1]
  viability, T/C: 82.3%
[2]
  viability, T/C: 75.1%
[3]
  viability, T/C: 81.3%
[4]
  viability, T/C: 83.5%
[5]
  viability, T/C: 103%
[6]
  viability, T/C: 95.8%
[7]
  viability, T/C: 93.6%
[8]
  viability, T/C: 84.6%
[9]
  viability, T/C: 94.9%
[10]
  viability, T/C: 92.8%
[11]
  viability, T/C: 98.4%
[12]
  viability, T/C: 83.8%
[13]
  viability, T/C: 80.6%
[14]
  viability, T/C: 86.3%
[15]
  viability, T/C: 82.6%
[16]
  viability, T/C: 83.6%
[17]
  viability, T/C: 83.3%
[18]
  viability, T/C: 86.7%
[19]
  viability, T/C: 76.3%
[20]
  viability, T/C: 71%
[21]
  viability, T/C: 88.9%
[22]
  viability, T/C: 108%
[23]
  viability, T/C: 79.5%
[24]
  viability, T/C: 89.5%
[25]
  viability, T/C: 75.1%
[26]
  viability, T/C: 74.9%
[27]
  viability, T/C: 77.1%
[28]
  viability, T/C: 73.4%
[29]
  viability, T/C: 77.7%
[30]
  viability, T/C: 83.5%
[31]
  viability, T/C: 62.7%
[32]
  viability, T/C: 68.9%
[33]
  viability, T/C: 75.6%
[34]
  viability, T/C: 61.6%
[35]
  viability, T/C: 80.3%
[36]
  viability, T/C: 68.8%

## COc1cc(C2c3cc4c(cc3C(OC3OC5COC(C)OC5C(O)C3O)C3COC(=O)C23)OCO4)cc(OC)c1O (stereo not given) + Cc1[nH]c2ccc(F)cc2c1-c1nc2c3cccnc3c3ncccc3c2[nH]1
Second compound 0.0316 µM
  IC50: > 10 µM
Second compound 0.1 µM
  IC50: > 10 µM
Second compound 0.316 µM
  IC50: > 10 µM
Second compound 1 µM
  IC50: > 10 µM
Second compound 3.16 µM
  IC50: 2.82 µM
Second compound 10 µM
  IC50: < 0.0316 µM
[1]
  viability, T/C: 72.9%
[2]
  viability, T/C: 82.7%
[3]
  viability, T/C: 111%
[4]
  viability, T/C: 80.6%
[5]
  viability, T/C: 89.2%
[6]
  viability, T/C: 83.7%
[7]
  viability, T/C: 89.9%
[8]
  viability, T/C: 110%
[9]
  viability, T/C: 84.2%
[10]
  viability, T/C: 78.9%
[11]
  viability, T/C: 83.7%
[12]
  viability, T/C: 76.3%
[13]
  viability, T/C: 79.8%
[14]
  viability, T/C: 79.7%
[15]
  viability, T/C: 85.2%
[16]
  viability, T/C: 101%
[17]
  viability, T/C: 83%
[18]
  viability, T/C: 69%
[19]
  viability, T/C: 78.4%
[20]
  viability, T/C: 65.1%
[21]
  viability, T/C: 71.4%
[22]
  viability, T/C: 64.9%
[23]
  viability, T/C: 73.7%
[24]
  viability, T/C: 64.2%
[25]
  viability, T/C: 53%
[26]
  viability, T/C: 63.3%
[27]
  viability, T/C: 52%
[28]
  viability, T/C: 65.7%
[29]
  viability, T/C: 47.3%
[30]
  viability, T/C: 50.9%
[31]
  viability, T/C: 50.1%
[32]
  viability, T/C: 49.6%
[33]
  viability, T/C: 44.2%
[34]
  viability, T/C: 50.9%
[35]
  viability, T/C: 41%
[36]
  viability, T/C: 45%

## CC(=O)O[C@H]1C(=O)[C@@]2(C)[C@H]([C@H](OC(=O)c3ccccc3)[C@]3(O)C[C@H](OC(=O)[C@H](O)[C@@H](NC(=O)c4ccccc4)c4ccccc4)C(C)=C1C3(C)C)[C@]1(OC(C)=O)CO[C@@H]1C[C@@H]2O + CN(C)c1ccc(Nc2c3ccc(NC(=O)CCN4CCCC4)cc3nc3cc(NC(=O)CCN4CCCC4)ccc23)cc1
Second compound 0.0316 µM
  IC50: > 10 µM
Second compound 0.1 µM
  IC50: > 10 µM
Second compound 0.316 µM
  IC50: > 10 µM
Second compound 1 µM
  IC50: 4.25 µM
Second compound 3.16 µM
  IC50: < 0.0316 µM
Second compound 10 µM
  IC50: < 0.0316 µM
[1]
  viability, T/C: 86.5%
[2]
  viability, T/C: 98.3%
[3]
  viability, T/C: 87.9%
[4]
  viability, T/C: 85.2%
[5]
  viability, T/C: 88%
[6]
  viability, T/C: 80.6%
[7]
  viability, T/C: 70.4%
[8]
  viability, T/C: 82.2%
[9]
  viability, T/C: 65.8%
[10]
  viability, T/C: 79.7%
[11]
  viability, T/C: 69.8%
[12]
  viability, T/C: 69.8%
[13]
  viability, T/C: 67.5%
[14]
  viability, T/C: 65.5%
[15]
  viability, T/C: 57.4%
[16]
  viability, T/C: 54.1%
[17]
  viability, T/C: 67.8%
[18]
  viability, T/C: 54.9%
[19]
  viability, T/C: 52.7%
[20]
  viability, T/C: 52.6%
[21]
  viability, T/C: 57%
[22]
  viability, T/C: 55.9%
[23]
  viability, T/C: 54.4%
[24]
  viability, T/C: 41.7%
[25]
  viability, T/C: 44.4%
[26]
  viability, T/C: 41.9%
[27]
  viability, T/C: 37.2%
[28]
  viability, T/C: 49.5%
[29]
  viability, T/C: 50%
[30]
  viability, T/C: 49.7%
[31]
  viability, T/C: 36.8%
[32]
  viability, T/C: 44.1%
[33]
  viability, T/C: 43.7%
[34]
  viability, T/C: 44.3%
[35]
  viability, T/C: 51.9%
[36]
  viability, T/C: 51.7%
